{"source": "paper PMC8956739", "about": "“A synthetic lipopeptide targeting top-priority multidrug-resistant Gram-negative pathogens” (Nature Communications, 2022)", "key": {"[1]": {"test_system": "P. aeruginosa FADDI-PA038", "format": "cell-based, Pseudomonas aeruginosa", "conditions": "carbapenem-resistant isolate", "how_it_was_run": "(§1)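 Read-out is the minimum inhibitory concentration, obtained by serially diluting compound in cation-adjusted Mueller–Hinton medium and exposing each isolate in microdilution format.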"}, "[2]": {"test_system": "P. aeruginosa FADDI-PA025", "format": "cell-based, Pseudomonas aeruginosa", "conditions": "FADDI-PA025", "how_it_was_run": "as §1"}, "[3]": {"test_system": "MDR clinical isolates of P. aeruginosa (n = 213, 55 carbapenem-resistant)", "format": "cell-based, Pseudomonas aeruginosa", "how_it_was_run": "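Compounds were serially diluted in CaMHB, bacteria were added, and the lowest inhibitory concentration was recorded after broth microdilution testing.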"}, "P. aeruginosa ATCC 27853": {"test_system": "P. aeruginosa ATCC 27853", "format": "cell-based, Pseudomonas aeruginosa", "how_it_was_run": "as §1"}, "[4]": {"test_system": "KCNJ16 knockout HK-2 cells", "assay": "Cell viability after 24 h treatment", "format": "cell-based, human", "conditions": "24 h treatment", "experimental": "(§2) Fig. 6 Transcriptomic changes in human kidney proximal tubular HK-2 cells following treatments with polymyxin B (PMB), colistin (COL), F287, F319, and F365. a Numbers of differentially expressed genes. Distinctive intersections are color-coded. b Cell viability difference (two-tailed Student’s t-test, n = 4 biologically independent cells, Benjamini–Hochberg adjusted P-values) between wild-type HK-2 and KCNJ16 knockout (KO) cells following 24 h treatment with lipopeptides. n.s., not significant; ^*adjusted P < 0.05, ^**adjusted P < 0.01, ^***adjusted P < 0.001. Data are shown as mean ± s.d. and individual data points. c Extracted transcriptional regulatory network from Signor database with 1-step neighbor constraints (enlarged for detail). Source data are provided as a Source Data file."}, "[5]": {"assay": "Cell viability after 24 h treatment", "format": "cell-based, human", "conditions": "human, KCNJ16 knockout HK-2 cells (kidney proximal tubular), Cell viability, KCNJ16 KO, KCNJ16 knockout HK-2 cells, 24 h, Fig. 6b", "experimental": "as §2"}, "[6]": {"test_system": "K. pneumoniae FADDI-KP065", "format": "cell-based, Klebsiella pneumoniae", "conditions": "carbapenem-resistant isolate", "how_it_was_run": "as §1"}, "[7]": {"test_system": "K. pneumoniae FADDI-KP032", "format": "cell-based, Klebsiella pneumoniae", "conditions": "carbapenem-resistant isolate", "how_it_was_run": "as §1"}, "HK-2 cells": {"test_system": "HK-2 cells", "assay": "Transcriptomic analysis (RNA-Seq) of kidney cells", "format": "cell-based, human", "conditions": "for logFC, differential gene expression for all genes / log2FC: HK-2 RNA-Seq; for log2FC: Fig. 5f", "experimental": "Human Kidney-2 (HK-2) cells (CRL-2190™, American Type Culture Collection) were treated with 100 μM colistin, F287, F319, and F365 for 24 h. Previous transcriptomic data of HK-2 cells following 24 h treatment with polymyxin B[26] were also employed for comparative bioinformatic analysis. RNA extraction was conducted as described above. Raw reads were aligned to genome GRCh38.94 (Ensembl genome database, http://ftp.ensembl.org/pub/release-94/fasta/homo_sapiens/dna/) using […] and summarized by featureCounts. Differentially expressed genes were determined using limma 3.46.0, with a combination of fold change ≥ 1.5 and FDR (by Benjamini–Hochberg algorithm) adjusted P-value ≤ 0.05 (n = 3). Key regulatory genes of HK-2 were analyzed in the context of signaling network in the Signor 2.0 database. Enrichment analysis of gene differential expression in HK-2 cells was conducted using enrichR 2.1. UpSetR 1.4.0, ComplexHeatmap 2.6.2, circlize 0.4.13 and iGraph 1.2.11 were used for data visualization. Raw data were deposited in the Short Reads Archive database under accession numbers SRR15239061-SRR15239078."}, "[8]": {"conditions": "MDR clinical isolates of (n = 213, 55 carbapenem-resistant)"}}, "note": "Read-outs that look alike come from different tables or passages of the source. Residues, ends and D or L forms follow the SMILES beside them."}
{"smiles": "CC[C@@H]1NC(=O)[C@@H](CC(C)C)NC(=O)[C@H](CCN)NC(=O)[C@@H](NC(=O)[C@H](CN)NC(=O)[C@@H](NC(=O)[C@H](CCN)NC(=O)c2ccc(Cl)cc2Cl)[C@@H](C)O)CCNC(=O)[C@H]([C@@H](C)O)NC(=O)[C@H](CCN)NC(=O)[C@H](CCN)NC1=O", "note": "[Lipopeptide F365] (HELM PEPTIDE1{[O=C(c1ccc(Cl)cc1Cl)[*:2]].[Dab].T.[NC[C@H](N[*:1])C(=O)[*:2]].[Dab].[Dab].[dL].[Abu].[Dab].[Dab].T}$PEPTIDE1,PEPTIDE1,5:R3-11:R2$$$V2.0)", "values": [{"measurement": "MIC P. aeruginosa FADDI-PA038", "setting": "[1]", "value": 0.5, "unit": "mg/L"}, {"measurement": "MIC P. aeruginosa FADDI-PA025", "setting": "[2]", "value": 0.5, "unit": "mg/L"}, {"measurement": "MIC50", "setting": "[3]; [8]", "value": 0.5, "unit": "mg/L"}, {"measurement": "MIC90", "setting": "[3]; [8]", "value": 1, "unit": "mg/L"}, {"measurement": "potency relative to polymyxin B", "setting": "[3]; MIC50/MIC90, P. aeruginosa panel", "value": 2, "unit": "fold"}, {"measurement": "Number of isolates", "setting": "[3]; isolates with MIC 0.05 μg/mL (so in the source)", "value": 1}, {"measurement": "Number of isolates", "setting": "[3]; isolates with MIC 0.125 μg/mL (so in the source)", "value": 6}, {"measurement": "Number of isolates", "setting": "[3]; isolates with MIC 0.25 μg/mL (so in the source)", "value": 28}, {"measurement": "Number of isolates", "setting": "[3]; isolates with MIC 0.5 μg/mL (so in the source)", "value": 159}, {"measurement": "Number of isolates", "setting": "[3]; isolates with MIC 1 μg/mL (so in the source)", "value": 13}, {"measurement": "Number of isolates", "setting": "[3]; isolates with MIC 2 μg/mL (so in the source)", "value": 1}, {"measurement": "Number of isolates", "setting": "[3]; isolates with MIC 4 μg/mL (so in the source)", "value": 2}, {"measurement": "Number of isolates", "setting": "[3]; isolates with MIC 8 μg/mL (so in the source)", "value": 0}, {"measurement": "Number of isolates", "setting": "[3]; isolates with MIC 16 μg/mL (so in the source)", "value": 1}, {"measurement": "Number of isolates", "setting": "[3]; isolates with MIC 32 μg/mL (so in the source)", "value": 0}, {"measurement": "Number of isolates", "setting": "[3]; isolates with MIC 64 μg/mL (so in the source)", "value": 0}, {"measurement": "Number of isolates", "setting": "[3]; isolates with MIC >64 μg/mL (so in the source)", "value": 2}, {"measurement": "impact of lung surfactant on MIC", "setting": "P. aeruginosa ATCC 27853; 10% Survanta vs none", "value": "not impacted"}, {"measurement": "MIC P. aeruginosa ATCC 27853", "setting": "P. aeruginosa ATCC 27853; ATCC 27853", "value": 0.5, "unit": "mg/L"}, {"measurement": "MIC, No Survanta", "setting": "P. aeruginosa ATCC 27853; ATCC 27853", "value": 0.5, "unit": "mg/L"}, {"measurement": "effect on cell viability", "setting": "[4]", "value": "no effect on cell viability"}, {"measurement": "viability at 24 h", "setting": "[5]; Rep1, replicate 1, read-out: Cell viability, KCNJ16 KO, Rep1", "value": 76, "unit": "%"}, {"measurement": "viability at 24 h", "setting": "[5]; Rep2, replicate 2, read-out: Cell viability, KCNJ16 KO, Rep2", "value": 94.1, "unit": "%"}, {"measurement": "viability at 24 h", "setting": "[5]; Rep3, replicate 3, read-out: Cell viability, KCNJ16 KO, Rep3", "value": 100, "unit": "%"}, {"measurement": "viability at 24 h", "setting": "[5]; Rep4, replicate 4, read-out: Cell viability, KCNJ16 KO, Rep4", "value": 73.7, "unit": "%"}, {"measurement": "MIC K. pneumoniae FADDI-KP065", "setting": "[6]", "value": "<0.125", "unit": "mg/L"}, {"measurement": "MIC K. pneumoniae FADDI-KP032", "setting": "[7]", "value": "<0.125", "unit": "mg/L"}, {"measurement": "logFC, differential gene expression for all genes", "setting": "HK-2 cells; Geneid ENSG00000223972", "value": -0.04793}, {"measurement": "logFC, differential gene expression for all genes", "setting": "HK-2 cells; Geneid ENSG00000227232", "value": -0.06475}, {"measurement": "logFC, differential gene expression for all genes", "setting": "HK-2 cells; Geneid ENSG00000233750", "value": -1.555}, {"measurement": "logFC, differential gene expression for all genes", "setting": "HK-2 cells; Geneid ENSG00000278267", "value": 0.04711}, {"measurement": "log2FC", "setting": "HK-2 cells; gene ENSG00000017483 SLC38A5", "value": -0.03439}, {"measurement": "log2FC", "setting": "HK-2 cells; gene ENSG00000023445 BIRC3", "value": -0.1649}, {"measurement": "log2FC", "setting": "HK-2 cells; gene ENSG00000056558 TRAF1", "value": 0.4036}, {"measurement": "log2FC", "setting": "HK-2 cells; gene ENSG00000066468 FGFR2", "value": -0.6638}, {"measurement": "num.of.degs", "setting": "HK-2 cells; number of differentially expressed genes per peptide, Fig. 6a", "value": 70}]}
